In patent publication US20010049373A1, “Materials and methods for killing nematodes and nematode eggs” (priority 2000, published 2001):

Key:
Caenorhabditis elegans [1] = test: C. elegans L1 larvae dose-response, 5 day visual viability score (Examples 2 and 7); format: in vivo; set-up: key: Dead: only stiff L1s (no movement); Dead (L4): worms are dead, but at a later larval stage; majority of worms are L1 (based on size); majority of worms are L2 (based on size); majority of worms are L3 (based on size); majority of worms are L4 (based on size); AD: majority of worms are adult; #AD: 5 adult worms or less; B!: sterile (0-25 progeny); B: low broodsize (25-100 progeny); ˜B: moderate broodsize (100-250 progeny); <: reduced broodsize (250-500 progeny); OK: no effect (˜1000+ progeny)
Method: Caenorhabditis elegans adults were grown on Nematode Growth Medium (NGM) until they produced eggs, then the adults were removed.
The eggs were allowed to hatch, and the L1 larvae collected. See The Neniatode Caenorhabditis elegans (1988) Cold Spring Harbor Laboratory Press. Using a Matrix Programmable Pipette, the L1s were distributed into 96-well tissue culture plates, 20 L1 in 50 μl NGM per well. Antibiotic/Antimyotic was added to each well, and 1% by weight E. coli strain HB101. The subject anthelmintic compounds were stored at 5 mM in 100% DMSO. 0.7 μl of compounds 1-31 were added to the left-most column of wells to yield a final concentration of 70 μM in 1.4% DMSO, with 1.4% DMSO only as the control. The compounds were then subjected to 5 more 3-fold dilutions from left to right to yield 6 column concentrations of 70 μM, 23.3 μM, 7.8 μM, 2.6 μM, 0.9 μM, and 0.3 μM. Plates were stored in air-tight Rubbermaid plastic boxes at 20° C. The nematodes had cleared all control wells by day 4, and nematode viability was scored by visual examination under a 100× dissecting microscope on day 5. A visual viability scoring system was used as follows:
If several classes of worms exist in a well, then all classes are scored. If adults are present, then the brood score is also recorded. Thus, “L1/L2” would mean a mixture of L1's and L2's are present in the well. “L4/#AD/B” would mean that a mixture of L4's and adults are resent in the well. The “#AD” would mean that there are 6 or less adults, and the “B” would mean that there were 100 progeny or less.
Column VI has a compound concentration of 70 μM with sequential 3-fold dilutions reported in columns V2, V3, V4, V5, and V6, respectively, such that the V6 concentration was 0.3 μM.
(§1) The nematicidal activity of anthelmintic Compositions 48-118 were determined in accordance with the procedure outlined in Example 2.

Caenorhabditis elegans [2] = test: HTS runs (initial and follow-up): mOD, % Run and visual score (Table 3); format: in vivo; set-up: key to Initial HTS Run Visual Score / Follow-up HTS Run Visual Score: Dead: only stiff L1s (no movement); Dead (L4): worms are dead, but at a later larval stage; majority of worms are L1 (based on size); majority of worms are L2 (based on size); majority of worms are L3 (based on size); majority of worms are L4 (based on size); AD: majority of worms are adult; #AD: 5 adult worms or less; B!: sterile (0-25 progeny); B: low broodsize (25-100 progeny); ˜B: moderate broodsize (100-250 progeny); <: reduced broodsize (250-500 progeny); OK: no effect (˜1000+ progeny)
Method: as §1

[3] = 0.3 μM, viability scored day 5, Table 1
[4] = 2.6 μM, viability scored day 5, Table 1
[5] = 70 μM, viability scored day 5, Table 1
[6] = 23.3 μM, viability scored day 5, Table 1
[7] = 0.3 μM (procedure of Example 2), day 5, Table 3
[8] = 0.9 μM (procedure of Example 2), day 5, Table 3
[9] = 7.8 μM (procedure of Example 2), day 5, Table 3
[10] = 23.3 μM (procedure of Example 2), day 5, Table 3
[11] = 70 μM (procedure of Example 2), day 5, Table 3
[12] = 2.6 μM (procedure of Example 2), day 5, Table 3

Row | SMILES | 5 Day Visual Score V6 (Caenorhabditis elegans [1]; [3]) | 5 Day Visual Score V4 (Caenorhabditis elegans [1]; [4]) | 5 Day Visual Score V1 (Caenorhabditis elegans [1]; [5]) | 5 Day Visual Score V5 (Caenorhabditis elegans [1]; 0.9 μM, viability scored day 5, Table 1) | 5 Day Visual Score V3 (Caenorhabditis elegans [1]; 7.8 μM, viability scored day 5, Table 1) | 5 Day Visual Score V2 (Caenorhabditis elegans [1]; [6]) | 5 Day Visual Score V6 (Caenorhabditis elegans [1]; [7]) | 5 Day Visual Score V5 (Caenorhabditis elegans [1]; [8]) | 5 Day Visual Score V3 (Caenorhabditis elegans [1]; [9]) | 5 Day Visual Score V2 (Caenorhabditis elegans [1]; [10]) | 5 Day Visual Score V1 (Caenorhabditis elegans [1]; [11]) | Follow-up HTS Run % Run (Caenorhabditis elegans [2]) | Follow-up HTS Run Visual Score (Caenorhabditis elegans [2]) | Follow-up HTS Run mOD (Caenorhabditis elegans [2]) | Initial HTS Run % Run (Caenorhabditis elegans [2]) | Initial HTS Run Visual Score (Caenorhabditis elegans [2]) | Initial HTS Run mOD (Caenorhabditis elegans [2]) | 5 Day Visual Score V4 (Caenorhabditis elegans [1]; [12])
1 | CCOc1ccc(C2ON=C(c3ccc(N(C)C)cc3)C2C(=O)NCCc2ccc(F)cc2)cc1 (stereo not drawn) [AKC 123] | #AD/˜B | < (reduced broodsize (250-500 progeny)) | L1 |  |  |  |  |  |  |  |  |  |  |  |  |  |  | 
2 | CCOc1cccc(C2ON=C(c3ccccc3OCC)C2C(=O)NCCc2ccc(OC)c(OCC)c2)c1 (stereo not drawn) [AKC 124] | L4/#AD/B | L4/#AD/B |  | L4/#AD/B |  |  |  |  |  |  |  |  |  |  |  |  |  | 
3 | CCOc1cccc(C2ON=C(c3ccccc3OCC)C2C(=O)NCc2ccc(OC(F)(F)F)cc2)c1 (stereo not drawn) [AKC 125] | < (reduced broodsize (250-500 progeny)) | L2 | L2/Dead(L3) |  | L2 | L2/Dead(L4) |  |  |  |  |  |  |  |  |  |  |  | 
4 | CCC1CCCCN1c1cc(Oc2ccc(-c3ccccc3)cc2)ncn1 (stereo not drawn) [AKC 148] |  |  |  |  |  |  | ˜B (moderate broodsize (100-250 progeny)) | ˜B (moderate broodsize (100-250 progeny)) | Dead | Dead | Dead | 126% | Dead | 170 mOD | 143% | Dead-Black Husk | 278 mOD | 
5 | CC(CCc1ccccc1)Nc1cc(Oc2ccc(-c3ccccc3)cc2)ncn1 (stereo not drawn) [AKC 149] |  |  |  |  |  |  | < (reduced broodsize (250-500 progeny)) | < (reduced broodsize (250-500 progeny)) | Dead | Dead | Dead | 100% | Dead | 135 mOD | 133% | Dead | 259 mOD | 
6 | FC(F)(F)c1ccccc1CNc1cc(Oc2ccc(-c3ccccc3)cc2)ncn1 [AKC 339] |  |  |  |  |  |  | OK (no effect (˜1000+ progeny)) | OK (no effect (˜1000+ progeny)) | OK (no effect (˜1000+ progeny)) | OK (no effect (˜1000+ progeny)) | OK (no effect (˜1000+ progeny)) | 113% | B (low broodsize (25-100 progeny)) | 153 mOD | 142% | 1AD/B | 277 mOD | OK (no effect (˜1000+ progeny))
7 | c1ccc2c(c1)CCN(c1cc(Oc3ccc4ccccc4c3)ncn1)C2 [AKC 342] |  |  |  |  |  |  | OK (no effect (˜1000+ progeny)) | OK (no effect (˜1000+ progeny)) |  |  |  | 92% | B!-Healthy | 124 mOD | 106% | L4/AD/B! | 207 mOD | ˜B (moderate broodsize (100-250 progeny))
8 | CN(Cc1ccccc1)c1cc(Oc2cccc(F)c2)ncn1 [AKC 344] |  |  |  |  |  |  | OK (no effect (˜1000+ progeny)) | OK (no effect (˜1000+ progeny)) |  | Dead | Dead | 119% |  | 161 mOD | 131% | L2 | 256 mOD | OK (no effect (˜1000+ progeny))
9 | Fc1ccc(Oc2cc(N3CCc4ccccc4C3)ncn2)cc1 [AKC 345] |  |  |  |  |  |  | OK (no effect (˜1000+ progeny)) | OK (no effect (˜1000+ progeny)) | L4 | L1 | L1 | 114% |  | 154 mOD | 135% | L1 | 264 mOD | OK (no effect (˜1000+ progeny))
10 | NS(=O)(=O)c1ccc(NC(=O)CN2CCCC(NC(=O)c3cc4ccccc4o3)C2)cc1 (stereo not drawn) [AKC 348] |  |  |  |  |  |  | B (low broodsize (25-100 progeny)) | < (reduced broodsize (250-500 progeny)) | Dead | Dead | Dead | 123% |  | 166 mOD | 126% | Dead | 246 mOD | 
11 | O=C(NCCc1ccccc1F)C1C(c2ccc(F)cc2)=NOC1c1ccc(-c2ccccc2)cc1 (stereo not drawn) [AKC 2153] |  |  | L1 |  |  | L1 |  |  |  |  |  |  |  |  |  |  |  | 
